According to publication PMC1586004, “Dibenzazecine compounds with a novel dopamine/5HT2A receptor profile and 3D-QSAR analysis” (BMC Pharmacology, 2006):
Marks after values point to notes of the source that are not given here.

Assays:
hD2L receptor [1] = molecular target: T1, hD2L receptor (Homo sapiens, UniProt P14416); experiment: Radioligand competition binding at hD2L receptors (cell membranes); conditions: read-out: pKi hD2L (converted)
T1 construct: expressed in transfected cells

hD2L receptor [2] = molecular target: T1, hD2L receptor; experiment: Intracellular [Ca2+] fluorescence assay, HEK293-hD2L cells; format: cell-based
hD1 receptor [3] = molecular target: T2, hD1 receptor (Homo sapiens, UniProt P21728); experiment: [35S]-GTPγS binding in HEK293-hD1 cell membranes; format: biochemical
T2 construct: expressed in transfected cells
Method: (§1) For [^35S]-GTPγS-binding, cell pellets were resuspended in 10 mM Tris-HCl/1 mM EDTA, pH 7.4, homogenized in a glass-teflon homogenizer and centrifuged for 15 min (40,000 × g, 4°C). Supernatant was discarded, and pellet was washed twice with ice-cold Tris-HCl/EDTA buffer and finally resuspended in 50 mM Tris-HCl, 4 mM MgCl2, 1 mM EDTA, 250 mM sucrose, pH 7.4, and stored at -80°C. The protein content was determined according to the Bradford method [30] with gamma immunoglobulin as standard.

hD3 receptor = molecular target: T3, hD3 receptor (Homo sapiens, UniProt P35462); experiment: Radioligand competition binding at hD3 receptors (cell membranes); conditions: read-out: pKi hD3 (converted)
T3 construct: expressed in transfected cells

hD1 receptor [4] = molecular target: T2, hD1 receptor; experiment: Intracellular [cAMP], CRE-luciferase reporter gene assay, HEK293-hD1 cells; format: cell-based
hD5 receptor = molecular target: T4, hD5 receptor (Homo sapiens, UniProt P21918); experiment: Radioligand competition binding at hD5 receptors (cell membranes); conditions: read-out: pKi hD5 (converted)
T4 construct: expressed in transfected cells

hD4.4 receptor = molecular target: T5, hD4.4 receptor (Homo sapiens, UniProt P21917); experiment: Radioligand competition binding at hD4.4 receptors (cell membranes); conditions: read-out: pKi hD4.4 (converted)
T5 sequence (P21917 1-419): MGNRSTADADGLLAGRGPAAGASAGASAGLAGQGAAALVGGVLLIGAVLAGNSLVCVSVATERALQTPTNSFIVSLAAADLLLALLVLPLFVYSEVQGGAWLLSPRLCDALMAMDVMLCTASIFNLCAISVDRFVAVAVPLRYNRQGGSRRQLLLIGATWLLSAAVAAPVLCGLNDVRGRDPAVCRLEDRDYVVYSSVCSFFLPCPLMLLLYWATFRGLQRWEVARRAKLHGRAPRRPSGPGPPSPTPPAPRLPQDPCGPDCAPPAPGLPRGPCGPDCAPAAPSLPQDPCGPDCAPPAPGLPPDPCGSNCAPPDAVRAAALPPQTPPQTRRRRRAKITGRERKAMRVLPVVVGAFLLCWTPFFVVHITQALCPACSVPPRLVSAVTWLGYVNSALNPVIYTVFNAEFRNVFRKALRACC

hD1 receptor [5] = molecular target: T2, hD1 receptor; experiment: Radioligand competition binding at hD1 receptors (cell membranes); conditions: for higher affinities for D1-like than for D2-like receptors: binding (table 2)
h5HT2A receptor = h5HT2A receptor (Homo sapiens, UniProt P28223); experiment: Radioligand competition binding at h5HT2A receptors (cell membranes); conditions: read-out: pKi h5HT2A (converted)
hD2L receptor [6] = molecular target: T1, hD2L receptor; experiment: Intracellular [cAMP], CRE-luciferase reporter gene assay, HEK293-hD2L cells; format: cell-based; conditions: read-out: pKi app [cAMP]i hD2L (converted)
hD2L receptor [7] = molecular target: T1, hD2L receptor; experiment: [35S]-GTPγS binding in HEK293-hD2L cell membranes; format: biochemical; conditions: read-out: pKi app [35S]-GTPγS binding hD2L (converted)
Method: as §1

hD1 receptor [8] = molecular target: T2, hD1 receptor; experiment: Intracellular [Ca2+] fluorescence assay, HEK293-hD1 cells; format: cell-based
hD1 receptor [9] = molecular target: T2, hD1 receptor; conditions: radioligand binding literature data; cited from earlier work
hD2L receptor [10] = molecular target: T1, hD2L receptor; conditions: radioligand binding literature data; cited from earlier work
[11] = Schild and Clark analyses, Ca2+ assay

T1 sequence (P14416 whole entry): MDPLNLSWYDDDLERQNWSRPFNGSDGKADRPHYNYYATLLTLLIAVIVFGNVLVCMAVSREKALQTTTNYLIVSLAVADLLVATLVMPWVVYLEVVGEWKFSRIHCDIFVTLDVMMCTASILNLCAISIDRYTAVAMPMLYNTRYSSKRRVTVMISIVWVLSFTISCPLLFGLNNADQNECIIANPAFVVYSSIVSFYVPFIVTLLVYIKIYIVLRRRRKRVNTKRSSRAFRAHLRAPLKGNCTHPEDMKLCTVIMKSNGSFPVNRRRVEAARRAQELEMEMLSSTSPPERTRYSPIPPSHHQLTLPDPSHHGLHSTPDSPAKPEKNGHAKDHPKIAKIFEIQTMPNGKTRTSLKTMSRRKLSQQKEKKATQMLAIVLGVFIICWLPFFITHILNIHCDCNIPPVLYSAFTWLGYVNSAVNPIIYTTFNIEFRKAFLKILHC
h5HT2A receptor, sequence (P28223 whole entry): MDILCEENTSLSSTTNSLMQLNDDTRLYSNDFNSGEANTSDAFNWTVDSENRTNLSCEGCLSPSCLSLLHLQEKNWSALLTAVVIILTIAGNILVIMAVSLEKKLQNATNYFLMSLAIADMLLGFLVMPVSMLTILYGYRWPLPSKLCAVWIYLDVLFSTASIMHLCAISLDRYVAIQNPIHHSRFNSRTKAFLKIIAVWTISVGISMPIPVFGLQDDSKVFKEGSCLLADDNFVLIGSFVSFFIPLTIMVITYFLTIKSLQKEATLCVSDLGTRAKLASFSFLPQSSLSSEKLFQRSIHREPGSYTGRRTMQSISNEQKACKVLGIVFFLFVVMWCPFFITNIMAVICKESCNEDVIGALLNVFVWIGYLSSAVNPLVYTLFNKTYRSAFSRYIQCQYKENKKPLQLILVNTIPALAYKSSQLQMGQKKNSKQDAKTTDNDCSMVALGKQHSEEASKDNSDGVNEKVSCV
T2 sequence (P21728 whole entry): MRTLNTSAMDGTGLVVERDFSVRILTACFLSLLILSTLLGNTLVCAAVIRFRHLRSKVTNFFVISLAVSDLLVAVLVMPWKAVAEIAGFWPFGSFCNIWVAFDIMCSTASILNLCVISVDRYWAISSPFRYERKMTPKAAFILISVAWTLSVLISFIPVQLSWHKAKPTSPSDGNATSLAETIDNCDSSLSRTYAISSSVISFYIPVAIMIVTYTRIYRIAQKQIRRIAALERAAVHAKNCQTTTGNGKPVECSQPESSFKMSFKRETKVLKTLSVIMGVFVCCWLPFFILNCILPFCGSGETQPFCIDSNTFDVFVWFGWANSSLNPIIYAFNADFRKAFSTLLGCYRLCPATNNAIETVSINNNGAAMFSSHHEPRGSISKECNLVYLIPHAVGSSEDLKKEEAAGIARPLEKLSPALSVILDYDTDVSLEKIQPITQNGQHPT
T3 sequence (P35462 whole entry): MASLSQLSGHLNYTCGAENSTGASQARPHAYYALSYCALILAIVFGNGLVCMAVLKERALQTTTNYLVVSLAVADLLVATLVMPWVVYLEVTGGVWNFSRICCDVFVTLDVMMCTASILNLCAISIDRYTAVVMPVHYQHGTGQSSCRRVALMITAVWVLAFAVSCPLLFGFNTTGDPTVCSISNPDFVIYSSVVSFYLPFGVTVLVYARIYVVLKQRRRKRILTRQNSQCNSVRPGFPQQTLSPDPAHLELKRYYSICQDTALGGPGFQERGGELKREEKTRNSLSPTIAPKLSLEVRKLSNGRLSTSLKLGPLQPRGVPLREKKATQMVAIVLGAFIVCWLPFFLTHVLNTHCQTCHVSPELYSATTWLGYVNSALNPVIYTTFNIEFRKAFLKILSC
T4 sequence (P21918 whole entry): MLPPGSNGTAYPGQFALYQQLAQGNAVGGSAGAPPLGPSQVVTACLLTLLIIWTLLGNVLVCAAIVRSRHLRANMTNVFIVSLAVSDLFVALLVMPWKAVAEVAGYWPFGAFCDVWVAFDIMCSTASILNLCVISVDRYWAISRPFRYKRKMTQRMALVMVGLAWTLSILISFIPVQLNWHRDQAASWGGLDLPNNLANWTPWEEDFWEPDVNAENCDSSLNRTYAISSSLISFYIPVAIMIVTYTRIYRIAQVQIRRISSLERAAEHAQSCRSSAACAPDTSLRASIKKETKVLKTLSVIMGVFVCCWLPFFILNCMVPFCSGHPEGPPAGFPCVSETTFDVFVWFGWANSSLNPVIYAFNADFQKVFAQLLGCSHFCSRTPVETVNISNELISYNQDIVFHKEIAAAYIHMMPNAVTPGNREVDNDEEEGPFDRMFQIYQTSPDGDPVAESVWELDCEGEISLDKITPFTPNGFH

CN1CCc2ccccc2Cc2[nH]c3ccccc3c2CC1 [LE300]
Ki (hD2L receptor [1]): 64.6 nM | Ki (hD2L receptor [2]; read-out: pKi app [Ca2+]i hD2L (converted)): 11.7 nM | Ki (hD1 receptor [3]; read-out: pKi app [35S]-GTPγS binding hD1 (converted)): 17.8 nM | Ki (hD3 receptor): 331 nM | IC50 (hD1 receptor [4]; read-out: IC50 [cAMP] hD1 (antagonist)): 123 ± 31.1 nM | Ki (hD1 receptor [4]; read-out: pKi app [cAMP]i hD1 (converted)): 28.2 nM | Ki (hD5 receptor): 10.2 nM | Ki (hD4.4 receptor): 347 nM | Ki-D1/Ki-D2 (hD1 receptor [5]): 0.16 | fold higher Ki using Krebs-HEPES instead of TRIS-HCl buffer, hD1 (hD1 receptor [5]): ~ 4 fold | Ki (hD1 receptor [5]; 0.2 nM [3H]SCH23390, Krebs-HEPES buffer pH 7.4, n = 3, read-out: Ki (Krebs-HEPES) hD1): 10 ± 1.15 nM | Ki (hD1 receptor [5]; 0.2 nM [3H]SCH23390, TRIS-HCl pH 7.4, n = 3, read-out: Ki (TRIS-HCl) hD1): 2.36 ± 0.13 nM | Ki (hD1 receptor [5]; heterologous competition, 0.2 nM [3H]SCH23390, Krebs-HEPES buffer pH 7.4, mean ± SEM, n ≥ 3, read-out: pKi hD1 (converted)): 10.5 nM | Ki (h5HT2A receptor): 0.224 nM | Ki (hD2L receptor [6]): 1.86 nM | Ki (hD2L receptor [7]): 7.24 nM | pKi app [Ca2+]i hD1 (hD1 receptor [8]): 7.22 ± 0.15 | IC50 (hD1 receptor [8]; read-out: IC50 [Ca2+] hD1 (antagonist)): 718 ± 168 nM

CN1CCc2ccccc2Cc2cc(O)c(O)cc2CC1 [LE403]
Ki (hD3 receptor): 724 nM | higher affinities for D1-like than for D2-like receptors (hD1 receptor [5]): up to 33 fold | Ki (h5HT2A receptor): 3.98 nM

Oc1cc2c(cc1O)[C@H]1c3ccccc3CN[C@@H]1CC2 (racemic) [Dihydrexidine, reference compound]
increase in [35S]-GTPγS binding compared with SKF38393 (hD1 receptor [3]; membrane preparations from HEK293-hD1 cells, 1 μM GDP): significantly higher increase

BrCCN1CCc2ccccc2Cc2[nH]c3ccccc3c2CC1 [AHAD11]
Ki (hD1 receptor [5]; read-out: pKi hD1 (converted)): 1510 nM

CN(C)CCC=C1c2ccccc2C=Nc2ccc(Cl)cc21 [RMI-81582, 2-chloro-11-(3-dimethylaminopropylidene)morphanthridine]
Ki-D1/Ki-D2 (calculated from literature) (hD1 receptor [9]): 0.05^a) | Ki-D2/Ki-5HT2A (calculated from literature) (hD2L receptor [10]): 31.6^a)

CN1CCc2ccccc2Cc2ccc(O)cc2CC1 [LE404]
nature of antagonism at D2L receptors (hD2L receptor [2]; [11]): competitive antagonistic behaviour | higher affinities for D1-like than for D2-like receptors (hD1 receptor [5]): up to 33 fold | Ki (h5HT2A receptor): 1.62 nM | nature of antagonism at D1 receptors (hD1 receptor [8]; [11]): competitive antagonistic behaviour | D1 preference over D2L in Ca2+ studies (hD1 receptor [8]; apparent functional Ki, Ca2+ (table 5)): 3 fold
